For 33 compounds, melting point results are on record in patent US8207204B2, “Triazole derivatives as SCD inhibitors” (GlaxoSmithKline LLC, priority 2007, dated 2012).

Counter-ions that a name gives are not always drawn.

As to `COc1ccc2nc(NC(=O)c3nnn(Cc4ccc(Cl)c(Cl)c4)c3C)sc2c1`, the melting point (commonly the temperature of the solid-liquid transition) came to 225 °C. `Cc1c(C(=O)Nc2nc3[nH]c(=O)[nH]c(=O)c3s2)nnn1Cc1ccc(Cl)c(Cl)c1`: the melting point was determined as 279.9 °C. As for `Cc1nc(NC(=O)c2nnn(Cc3ccc(Cl)c(Cl)c3)c2C)sc1C(=O)NCCN(C)C.Cl`, the figure is 121 °C; as for `Cc1nc(NC(=O)c2nnn(Cc3ccc(Cl)c(Cl)c3)c2C)sc1C(=O)N(C)C` (as salt: hydrochloride) [Example 28, 1-[(3,4-Dichlorophenyl)methyl]-N-{5-[(dimethylamino)carbonyl]-4-methyl-1,3-thiazo1-2-yl}-5-methyl-1H-1,2,3-triazole-4-carboxamide], 144 °C; as for `CCOC(=O)c1nnc(NC(=O)c2nnn(Cc3ccc(Cl)c(Cl)c3)c2C)s1` [Example 3, Ethyl 5-[({1-[(3,4-dichlorophenyl)methyl]-5-methyl-1H-1,2,3-triazol-4-yl}carbonyl)amino]-1,3,4-thiadiazole-2-carboxylate], 203.8 °C.

With `COC(=O)c1cnc(NC(=O)c2nnn(Cc3ccc(Cl)c(Cl)c3)c2C)s1` [Example 4, Methyl 2-[({1-[(3,4-dichlorophenyl)methyl]-5-methyl-1H-1,2,3-triazol-4-yl}carbonyl)amino]-1,3-thiazole-5-carboxylate], the melting point is 212 °C.

Turning to `Cc1c(C(=O)Nc2ncc(C=O)s2)nnn1Cc1ccc(Cl)c(Cl)c1` [Example 5, 1-[(3,4-Dichlorophenyl)methyl]-N-(5-formyl-1,3-thiazol-2-yl)-5-methyl-1H-1,2,3-triazole-4-carboxamide], the melting point was more than 260 °C. Compound `Cc1nnc(NC(=O)c2nnn(Cc3ccc(Cl)c(Cl)c3)c2C)o1` [Example 6, 1-[(3,4-Dichlorophenyl)methyl]-5-methyl-N-(5-methyl-1,3,4-oxadiazol-2-yl)-1H-1,2,3-triazole-4-carboxamide] yielded a melting point of 192.2 °C. For `COCc1nnc(NC(=O)c2nnn(Cc3ccc(Cl)c(Cl)c3)c2C)s1` [Example 7, 1-[(3,4-Dichlorophenyl)methyl]-5-methyl-N-{5-[(methyloxy)methyl]-1,3,4-thiadiazo1-2-yl}-1H-1,2,3-triazole-4-carboxamide] the value was 178.3 °C.

Regarding `COC(=O)Cc1csc(NC(=O)c2nnn(Cc3ccc(Cl)c(Cl)c3)c2C)n1` [Example 8, Methyl {2-[({1-[(3,4-dichlorophenyl)methyl]-5-methyl-1H-1,2,3-triazol-4-yl}carbonyl)amino]-1,3-thiazol-4-yl}acetate], the melting point came out at 158 °C. As for `CCOC(=O)c1sc(NC(=O)c2nnn(Cc3ccc(Cl)c(Cl)c3)c2C)nc1C(F)(F)F` [Example 9, Ethyl 2-[({1-[(3,4-dichlorophenyl)methyl]-5-methyl-1H-1,2,3-triazol-4-yl}carbonyl)amino]-4-(trifluoromethyl)-1,3-thiazole-5-carboxylate], the figure is 155 °C. `Cc1nc(NC(=O)c2nnn(Cc3ccc(Cl)c(Cl)c3)c2C)sc1C` [Example 10, 1-[(3,4-Dichlorophenyl)methyl]-N-(4,5-dimethyl-1,3-thiazol-2-yl)-5-methyl-1H-1,2,3-triazole-4-carboxamide] came in with a melting point of 210.4 °C. As for `CCOC(=O)c1ccc2nc(NC(=O)c3nnn(Cc4ccc(Cl)c(Cl)c4)c3C)sc2c1` [Example 11, Ethyl 2-[({1-[(3,4-dichlorophenyl)methyl]-5-methyl-1H-1,2,3-triazol-4-yl}carbonyl)amino]-1,3-benzothiazole-6-carboxylate], the figure is 199 °C; as for `CCOC(=O)Cc1nc(NC(=O)c2nnn(Cc3ccc(Cl)c(Cl)c3)c2C)sc1C` [Example 12, Ethyl {2-[({1-[(3,4-dichlorophenyl)methyl]-5-methyl-1H-1,2,3-triazol-4-yl}carbonyl)amino]-5-methyl-1,3-thiazol-4-yl}acetate], 125 °C. As for `COC(=O)c1ccc(NC(=O)c2nnn(Cc3ccc(Cl)c(Cl)c3)c2C)nc1` [Example 14, Methyl 6-[({1-[(3,4-dichlorophenyl)methyl]-5-methyl-1H-1,2,3-triazol-4-yl}carbonyl)amino]-3-pyridinecarboxylate], the figure is 179 °C. For `COC(=O)c1ccnc(NC(=O)c2nnn(Cc3ccc(Cl)c(Cl)c3)c2C)c1` [Example 15, Methyl 2-[({1-[(3,4-dichlorophenyl)methyl]-5-methyl-1H-1,2,3-triazol-4-yl}carbonyl)amino]-4-pyridinecarboxylate] the value was 172 °C. `Cc1nc(NC(=O)c2nnn(Cc3ccc(Cl)c(Cl)c3)c2C)sc1C(=O)O` [Example 16, 2-[({1-[(3,4-Dichlorophenyl)methyl]-5-methyl-1H-1,2,3-triazol-4-yl}carbonyl)amino]-4-methyl-1,3-thiazole-5-carboxylic acid]: the melting point stood at 262.6 °C. For `Cc1c(C(=O)Nc2ncc(C(=O)O)o2)nnn1Cc1ccc(Cl)c(Cl)c1` [Example 17, 2-[({1-[(3,4-Dichlorophenyl)methyl]-5-methyl-1H-1,2,3-triazol-4-yl}carbonyl)amino]-1,3-oxazole-5-carboxylic acid] the value was 201.8 °C; for `CNC(=O)c1sc(NC(=O)c2nnn(Cc3ccc(Cl)c(Cl)c3)c2C)nc1C` [Example 18, 1-[(3,4-Dichlorophenyl)methyl]-5-methyl-N-{4-methyl-5-[(methylamino)carbonyl]-1,3-thiazol-2-yl}-1H-1,2,3-triazole-4-carboxamide], 218.5 °C. `Cc1nc(NC(=O)c2nnn(Cc3ccc(Cl)c(Cl)c3)c2C)sc1C(=O)NCCC(C)C` [Example 19, 1-[(3,4-Dichlorophenyl)methyl]-5-methyl-N-(4-methyl-5-{[(3-methylbutyl)amino]carbonyl}-1,3-thiazol-2-yl)-1H-1,2,3-triazole-4-carboxamide]: the melting point stood at 174.3 °C. For `Cc1nc(NC(=O)c2nnn(Cc3ccc(Cl)c(Cl)c3)c2C)sc1C(=O)NC(C)C` [Example 20, 1-[(3,4-Dichlorophenyl)methyl]-5-methyl-N-(4-methyl-5-{[(1-methylethyl)amino]carbonyl}-1,3-thiazol-2-yl)-1H-1,2,3-triazole-4-carboxamide] the value was 204.4 °C; for `CCNC(=O)c1sc(NC(=O)c2nnn(Cc3ccc(Cl)c(Cl)c3)c2C)nc1C` [Example 21, 1-[(3,4-Dichlorophenyl)methyl]-N-{5-[(ethylamino)carbonyl]-4-methyl-1,3-thiazol-2-yl}-5-methyl-1H-1,2,3-triazole-4-carboxamide], 194.1 °C; for `Cc1c(C(=O)Nc2ncc(C(=O)NCCC(C)C)s2)nnn1Cc1ccc(Cl)c(Cl)c1` [Example 23], 259.3 °C. For `Cc1nc(NC(=O)c2nnn(Cc3ccc(Cl)c(Cl)c3)c2C)sc1C(=O)N1CCOCC1` [Example 24, 1-[(3,4-Dichlorophenyl)methyl]-5-methyl-N-[4-methyl-5-(4-morpholinyl-carbonyl)-1,3-thiazol-2-yl]-1H-1,2,3-triazole-4-carboxamide] the value was 202.9 °C; for `Cc1nc(NC(=O)c2nnn(Cc3ccc(Cl)c(Cl)c3)c2C)sc1C(=O)N1CCN(C)CC1` [Example 25, 1-[(3,4-Dichlorophenyl)methyl]-5-methyl-N-{4-methyl-5-[(4-methyl-1-piperazinyl)carbonyl]-1,3-thiazo1-2-yl}-1H-1,2,3-triazole-4-carboxamide], 216.9 °C; for `COCCNC(=O)c1sc(NC(=O)c2nnn(Cc3ccc(Cl)c(Cl)c3)c2C)nc1C` [Example 26, 1-[(3,4-Dichlorophenyl)methyl]-5-methyl-N-[4-methyl-5-({[2-(methyloxy)ethyl]amino}carbonyl)-1,3-thiazol-2-yl]-1H-1,2,3-triazole-4-carboxamide], 129 °C. For `Cc1nc(NC(=O)c2nnn(Cc3ccc(Cl)c(Cl)c3)c2C)sc1C(=O)NCCO` [Example 27, 1-[(3,4-Dichlorophenyl)methyl]-N-(5-{[(2-hydroxyethyl)-amino]carbonyl}-4-methyl-1,3-thiazol-2-yl)-5-methyl-1H-1,2,3-triazole-4-carboxamide] the value was 166 °C. Take `CNC(=O)c1cnc(NC(=O)c2nnn(Cc3ccc(Cl)c(Cl)c3)c2C)s1` [Example 29, 1-[(3,4-Dichlorophenyl)methyl]-5-methyl-N-{5-[(methylamino)carbonyl]-1,3-thiazol-2-yl}-1H-1,2,3-triazole-4-carboxamide]: the melting point was 335.6 °C. For `Cc1c(C(=O)Nc2ncc(C(=O)N(C)C)s2)nnn1Cc1ccc(Cl)c(Cl)c1` [Example 30, 1-[(3,4-Dichlorophenyl)methyl]-N-{5-[(dimethylamino)carbonyl]-1,3-thiazol-2-yl}-5-methyl-1H-1,2,3-triazole-4-carboxamide] the value was 304.9 °C. For `Cc1c(C(=O)Nc2ncc(C(=O)NCCO)s2)nnn1Cc1ccc(Cl)c(Cl)c1` [Example 31, 1-[(3,4-Dichlorophenyl)methyl]-N-(5-{[(2-hydroxyethyl)-amino]carbonyl}-1,3-thiazol-2-yl)-5-methyl-1H-1,2,3-triazole-4-carboxamide] the value was 260.4 °C. For `CNC(=O)c1ccnc(NC(=O)c2nnn(Cc3ccc(Cl)c(Cl)c3)c2C)c1` [Example 32, 2-[({1-[(3,4-Dichlorophenyl)methyl]-5-methyl-1H-1,2,3-triazol-4-yl}carbonyl)amino]-N-methyl-4-pyridine-carboxamide] the value was 234.1 °C; for `CCNC(=O)c1sc(NC(=O)c2cn(Cc3ccc(Cl)c(Cl)c3)nn2)nc1C` [Example 33, 1-[(3,4-Dichlorophenyl)methyl]-N-{5-[(ethylamino)carbonyl]-4-methyl-1,3-thiazo1-2-yl}-1H-1,2,3-triazole-4-carboxamide], 210.6 °C. Consider `CNC(=O)c1sc(NC(=O)c2cn(Cc3ccc(Cl)c(Cl)c3)nn2)nc1C` [Example 34, 1-[(3,4-Dichlorophenyl)methyl]-N-{4-methyl-5-[(methylamino)carbonyl]-1,3-thiazol-2-yl}-1H-1,2,3-triazole-4-carboxamide], for which the melting point was determined as 210.4 °C.
